pIC50: −log10 of the molar value. ≈ marks a conversion by molar mass, not a printed value.
Tested on: Mycobacterium tuberculosis strain EH4.0 expressing green-fluorescent protein (GFP)
Experiment: microbe, parasite or virus in culture
Type: cell-based
Conditions: Test 1 (and/or Test 2), read-out: pIC50 (converted)

| Structure (SMILES) | IC50 [nM] |
| --- | --- |
| CC1=NN(c2ccc(CNC(=O)c3c(C(F)(F)F)nc4ccc(C)cn34)cc2F)CCN1S(=O)(=O)C(F)(F)F [Compound 253] | 1.86 |
| CCc1nc2ncc(C)cn2c1C(=O)NCc1cnc(N2CCN(S(=O)(=O)C(F)(F)F)C(C)=N2)c(F)c1 [Compound 255] | 6.17 |
| CC1=NN(c2ccc(CNC(=O)c3c(C(F)(F)F)nc4ncc(C)cn34)cc2F)CCN1S(=O)(=O)C(F)(F)F [Compound 257] | 6.03 |
| CCc1nc2ccc(C)cn2c1C(=O)NCc1ccc(N2CCN(S(=O)(=O)C(F)(F)F)C(C(=O)OC)=N2)cc1 [Compound 258] | 6.17 |
| CCc1nc2ccc(C)cn2c1C(=O)NCc1ccc(N2CCN(S(=O)(=O)C(F)(F)F)C(C(N)=O)=N2)cc1 [Compound 260] | 32.4 |

Same assay, conditions: read-out: pIC50 (converted)

| Structure (SMILES) | IC50 [nM] |
| --- | --- |
| CCc1nc2ccc(C)cn2c1C(=O)NCc1ccc(N2CCN(S(=O)(=O)C(F)(F)F)C(C(=O)N(C)C)=N2)cc1 [Compound 259] | 10.7 |

Tested on: Na Ch
Experiment: CVS Na Ch
Conditions: not given

| Structure (SMILES) | pIC50 |
| --- | --- |
| CCc1nc2ccc(Cl)cn2c1C(=O)NCc1ccc(N2CCN(S(=O)(=O)C(F)(F)F)C(OC)=N2)cc1 [Compound 6] | < 5.00 |
| CCc1nc2ccc(Cl)cn2c1C(=O)NCc1ccc(N2CCN(S(=O)(=O)C(F)(F)F)C=N2)c(F)c1 [Compound 9] | < 5.00 |
| CCc1nc2ncc(Cl)cn2c1C(=O)NCc1ccc(N2CCN(S(=O)(=O)C(F)(F)F)C=N2)cc1 [Compound 13] | < 5.00 |
| CCc1nc2ccc(Cl)cn2c1C(=O)NCc1ccc(N2CCN(S(=O)(=O)C(F)(F)F)C=N2)cc1F [Compound 16] | < 5.00 |
| CCc1nc2ccc(C#N)cn2c1C(=O)NCc1ccc(N2CCN(S(=O)(=O)C(F)(F)F)C(OC)=N2)c(F)c1 [Compound 73] | < 5.00 |

Tested on: Ca Ch
Experiment: not given
Conditions: read-out: CVS Ca Ch IC50

| Structure (SMILES) | pIC50 |
| --- | --- |
| CCc1nc2ccc(Cl)cn2c1C(=O)NCc1ccc(N2CCN(S(=O)(=O)C(F)(F)F)C=N2)cc1 [Compound 1] | < 5.00 |
| CCc1nc2ccc(Cl)cn2c1C(=O)NCc1ccc(N2CCN(S(C)(=O)=O)C=N2)cc1 [Compound 20] | < 5.00 |
| CCc1nc2ncc(C)cn2c1C(=O)NCc1ccc(N2CCN(S(=O)(=O)C(F)(F)F)C=N2)c(F)c1 [Compound 161] | < 5.00 |

Tested on: not listed separately
Experiment: GSH measurement (reactive metabolites)
Type: in vitro ADME
Conditions: not given
Text: (§1) The compounds of the invention/examples may have advantages associated with in vitro potency, kill kinetics (i.e. bactericidal effect) in vitro, PK properties, food effect, safety/toxicity (including liver toxicity, coagulation, 5-LO oxygenase), metabolic stability, Ames II negativity, MNT negativity, aqueous based solubility (and ability to formulate) and/or cardiovascular effect e.g. on animals (e.g. anesthetized guinea pig). The data below that was generated/calculated may be obtained using standard methods/assays, for instance that are available in the literature or which may be performed by a supplier (e.g. Microsomal Stability Assay—Cyprotex, Mitochondrial toxicity (Glu/Gal) assay—Cyprotex, as well as literature CYP cocktail inhibition assays). In some instances, GSH was measured (reactive metabolites, glucuronidation) to observe if a dihydrodiol is observed by LCMS (fragmentation ions), which would correspond to a dihydroxylation on the core heterocycle.

| Structure (SMILES) | GSH / reactive metabolites |
| --- | --- |
| CCc1nc2ccc(C#N)cn2c1C(=O)NCc1ccc(N2CCN(S(=O)(=O)C(F)(F)F)C(OC)=N2)c(F)c1 [Compound 73] | no measure of GSH |
| O=C(NCc1ccc(N2CCN(S(=O)(=O)C(F)(F)F)C=N2)c(F)c1)c1c(C(F)(F)F)nc2ccccn12 [Compound 152] | formation of reactive metabolites was blocked |

Tested on: not listed separately
Experiment: Mitochondrial toxicity (Glu/Gal) assay
Type: cell-based
Conditions: not given
Text: as §1

| Structure (SMILES) | Glu/Gal assay ratio (mitotoxicity) |
| --- | --- |
| CCc1nc2ccc(Cl)cn2c1C(=O)NCc1ccc(N2CCN(S(=O)(=O)C(F)(F)F)C=N2)cc1 [Compound 1] | < 3 |
| CCc1nc2ccc(Cl)cn2c1C(=O)NCc1ccc(N2CCN(S(=O)(=O)C(F)(F)F)C(OC)=N2)cc1 [Compound 6] | < 3 |
| O=C(NCc1ccc(N2CCN(S(=O)(=O)C(F)(F)F)C=N2)c(F)c1)c1c(C(F)(F)F)nc2ccccn12 [Compound 152] | < 3 |
| CCc1nc2ncc(C)cn2c1C(=O)NCc1ccc(N2CCN(S(=O)(=O)C(F)(F)F)C=N2)c(F)c1 [Compound 161] | < 3 |

Tested on: not listed separately
Experiment: AMES II
Type: cell-based
Conditions: not given
Text: as §1

| Structure (SMILES) | AMES II |
| --- | --- |
| CCc1nc2ncc(C)cn2c1C(=O)NCc1ccc(N2CCN(S(=O)(=O)C(F)(F)F)C=N2)c(F)c1 [Compound 161] | negative |

Biological target: Kinase panel
Experiment: Kinase panel
Type: biochemical
Conditions: not given

| Structure (SMILES) | Kinase panel |
| --- | --- |
| CCc1nc2ncc(C)cn2c1C(=O)NCc1ccc(N2CCN(S(=O)(=O)C(F)(F)F)C=N2)c(F)c1 [Compound 161] | negative |

Tested on: not given
Experiment: not given
Type: physicochemical
Conditions: 0 h, 30 μM
Protocol: Chemical Stability Testing
Preliminary Protocol • Add 3 μl of a 10 mM DMSO stock solution to 1 ml of the following solvents in a 1.5 ml HPLC vial. • DMSO (reference solution) • H2O/Acetonitril 1/1 (assay solution) • 0.1N HCl/Acetonitril 1/1 (assay solution) • Mix well, […] LCMS • Compare the chromatograms of the two assay solutions with the reference solution and report the additional peaks as degradation peaks

| Structure (SMILES) | chemical stability (% by LCMS), DMSO [%] |
| --- | --- |
| CC1=NN(c2ccc(CNC(=O)c3c(C(F)(F)F)nc4ccc(C)cn34)cc2F)CCN1S(=O)(=O)C(F)(F)F [Compound 253] | 100 |
| CCc1nc2ncc(C)cn2c1C(=O)NCc1cnc(N2CCN(S(=O)(=O)C(F)(F)F)C(C)=N2)c(F)c1 [Compound 255] | 100 |
| CC1=NN(c2ccc(CNC(=O)c3c(C(F)(F)F)nc4ncc(C)cn34)cc2F)CCN1S(=O)(=O)C(F)(F)F [Compound 257] | 99 |
| CCc1nc2ccc(C)cn2c1C(=O)NCc1ccc(N2CCN(S(=O)(=O)C(F)(F)F)C(C(=O)OC)=N2)cc1 [Compound 258] | 99 |
| CCc1nc2ccc(C)cn2c1C(=O)NCc1ccc(N2CCN(S(=O)(=O)C(F)(F)F)C(C(=O)N(C)C)=N2)cc1 [Compound 259] | 98 |
| CCc1nc2ccc(C)cn2c1C(=O)NCc1ccc(N2CCN(S(=O)(=O)C(F)(F)F)C(C(N)=O)=N2)cc1 [Compound 260] | 98 |

Same assay, conditions: 48 h, 30 μM

| Structure (SMILES) | chemical stability (% by LCMS), ACN/H2O [%] |
| --- | --- |
| CC1=NN(c2ccc(CNC(=O)c3c(C(F)(F)F)nc4ccc(C)cn34)cc2F)CCN1S(=O)(=O)C(F)(F)F [Compound 253] | 100 |
| CCc1nc2ncc(C)cn2c1C(=O)NCc1cnc(N2CCN(S(=O)(=O)C(F)(F)F)C(C)=N2)c(F)c1 [Compound 255] | 100 |
| CC1=NN(c2ccc(CNC(=O)c3c(C(F)(F)F)nc4ncc(C)cn34)cc2F)CCN1S(=O)(=O)C(F)(F)F [Compound 257] | 99 |
| CCc1nc2ccc(C)cn2c1C(=O)NCc1ccc(N2CCN(S(=O)(=O)C(F)(F)F)C(C(=O)OC)=N2)cc1 [Compound 258] | 99 |
| CCc1nc2ccc(C)cn2c1C(=O)NCc1ccc(N2CCN(S(=O)(=O)C(F)(F)F)C(C(=O)N(C)C)=N2)cc1 [Compound 259] | 100 |
| CCc1nc2ccc(C)cn2c1C(=O)NCc1ccc(N2CCN(S(=O)(=O)C(F)(F)F)C(C(N)=O)=N2)cc1 [Compound 260] | 100 |

Same assay, conditions: 48 h, 30 μM, pH 1.6

| Structure (SMILES) | chemical stability (% by LCMS), ACN/0.1N HCl [%] |
| --- | --- |
| CC1=NN(c2ccc(CNC(=O)c3c(C(F)(F)F)nc4ccc(C)cn34)cc2F)CCN1S(=O)(=O)C(F)(F)F [Compound 253] | 100 |
| CCc1nc2ncc(C)cn2c1C(=O)NCc1cnc(N2CCN(S(=O)(=O)C(F)(F)F)C(C)=N2)c(F)c1 [Compound 255] | 98 |
| CC1=NN(c2ccc(CNC(=O)c3c(C(F)(F)F)nc4ncc(C)cn34)cc2F)CCN1S(=O)(=O)C(F)(F)F [Compound 257] | 99 |
| CCc1nc2ccc(C)cn2c1C(=O)NCc1ccc(N2CCN(S(=O)(=O)C(F)(F)F)C(C(=O)OC)=N2)cc1 [Compound 258] | 100 |
| CCc1nc2ccc(C)cn2c1C(=O)NCc1ccc(N2CCN(S(=O)(=O)C(F)(F)F)C(C(=O)N(C)C)=N2)cc1 [Compound 259] | 100 |
| CCc1nc2ccc(C)cn2c1C(=O)NCc1ccc(N2CCN(S(=O)(=O)C(F)(F)F)C(C(N)=O)=N2)cc1 [Compound 260] | 100 |

Tested on: not given
Experiment: not given
Conditions: not given

| Structure (SMILES) | melting point [°C] |
| --- | --- |
| CCc1nc2ccc(Cl)cn2c1C(=O)NCc1ccc(N2CCN(S(=O)(=O)C(F)(F)F)C=N2)cc1 [Compound 1] | 183.46 |
| CCc1nc2ncc(Cl)cn2c1C(=O)NCc1ccc(N2CCN(S(=O)(=O)C(F)(F)F)C=N2)cc1 [Compound 13] | 215.87 |
| CCc1nc2ccc(Cl)cn2c1C(=O)NCc1ccc(N2CCN(S(=O)(=O)C(F)(F)F)C=N2)cc1F [Compound 16] | 158.1 |
| CCc1nc2ccc(Cl)cn2c1C(=O)NCc1ccc(N2CCN(S(C)(=O)=O)C=N2)cc1 [Compound 20] | 209.36 |
| CCc1nc2ccc(C#N)cn2c1C(=O)NCc1ccc(N2CCN(S(=O)(=O)C(F)(F)F)C(OC)=N2)c(F)c1 [Compound 73] | 212.08 |

Tested on: not given
Experiment: not given
Conditions: in vivo

| Structure (SMILES) | bioavailability |
| --- | --- |
| CCc1nc2ccc(Cl)cn2c1C(=O)NCc1ccc(N2CCN(S(=O)(=O)C(F)(F)F)C=N2)cc1 [Compound 1] | good bioavailability |
| O=C(NCc1ccc(N2CCN(S(=O)(=O)C(F)(F)F)C=N2)c(F)c1)c1c(C(F)(F)F)nc2ccccn12 [Compound 152] | good bioavailaibility |
| CCc1nc2ncc(C)cn2c1C(=O)NCc1ccc(N2CCN(S(=O)(=O)C(F)(F)F)C=N2)c(F)c1 [Compound 161] | good bioavailaibility |

Tested on: M. tuberculosis H37Rv
Experiment: not given
Conditions: strain M. tuberculosis H37Rv, inside macrophages; cited from earlier work

| Structure (SMILES) | MIC50 [nM] |
| --- | --- |
| CCc1nc2ccc(Cl)cn2c1C(=O)NCc1ccc(N2CCC(c3ccc(OC(F)(F)F)cc3)CC2)cc1 [Compound Q203] | 0.28 (≈ 0.156 ng/mL) |

Tested on: Cyp 3A4
Experiment: Cyp 3A4 induction
Conditions: at 1 μM

| Structure (SMILES) | Cyp 3A4 induction (% control) |
| --- | --- |
| CCc1nc2ncc(C)cn2c1C(=O)NCc1ccc(N2CCN(S(=O)(=O)C(F)(F)F)C=N2)c(F)c1 [Compound 161] | 3.0 |

— patent publication US20240199611A1, “ANTIBACTERIAL COMPOUNDS” (JANSSEN SCIENCES IRELAND UNLIMITED COMPANY, priority 2021, published 2024)
